In ChEMBL document CHEMBL1138027, “Dimethoxybenzo[i]phenanthridine-12-carboxylic acid derivatives and 6H-dibenzo[c,h][2,6]naphthyridin-5-ones with potent topoisomerase I-targeting activity and cytotoxicity” (Bioorg Med Chem Lett, 2004):

Key:
P388 = assay: Concentration required to inhibit cell proliferation in P388 tumor cell line; format: functional, cell-based; conditions: Mus musculus
RPMI 8402 [1] = assay: Concentration required to inhibit cell proliferation in […] tumor cell line; format: functional, cell-based; conditions: Homo sapiens
KB [2] = assay: Concentration required to inhibit cell proliferation by 50% in KBV-1 tumor cell line; overexpress MDR1; format: functional, cell-based; conditions: Homo sapiens
KB 3-1 [3] = assay: Concentration required to inhibit cell proliferation by 50% in KBH5.0 tumor cell line; overexpress BCRP; format: functional, cell-based; conditions: Homo sapiens
[4] = target: T1, DNA topoisomerase 1 (Homo sapiens) (UniProt P11387); assay: Relative effective concentration to cleave plasmid DNA with human topoisomerase I; compared to camptothecin=1
T1 sequence (whole entry): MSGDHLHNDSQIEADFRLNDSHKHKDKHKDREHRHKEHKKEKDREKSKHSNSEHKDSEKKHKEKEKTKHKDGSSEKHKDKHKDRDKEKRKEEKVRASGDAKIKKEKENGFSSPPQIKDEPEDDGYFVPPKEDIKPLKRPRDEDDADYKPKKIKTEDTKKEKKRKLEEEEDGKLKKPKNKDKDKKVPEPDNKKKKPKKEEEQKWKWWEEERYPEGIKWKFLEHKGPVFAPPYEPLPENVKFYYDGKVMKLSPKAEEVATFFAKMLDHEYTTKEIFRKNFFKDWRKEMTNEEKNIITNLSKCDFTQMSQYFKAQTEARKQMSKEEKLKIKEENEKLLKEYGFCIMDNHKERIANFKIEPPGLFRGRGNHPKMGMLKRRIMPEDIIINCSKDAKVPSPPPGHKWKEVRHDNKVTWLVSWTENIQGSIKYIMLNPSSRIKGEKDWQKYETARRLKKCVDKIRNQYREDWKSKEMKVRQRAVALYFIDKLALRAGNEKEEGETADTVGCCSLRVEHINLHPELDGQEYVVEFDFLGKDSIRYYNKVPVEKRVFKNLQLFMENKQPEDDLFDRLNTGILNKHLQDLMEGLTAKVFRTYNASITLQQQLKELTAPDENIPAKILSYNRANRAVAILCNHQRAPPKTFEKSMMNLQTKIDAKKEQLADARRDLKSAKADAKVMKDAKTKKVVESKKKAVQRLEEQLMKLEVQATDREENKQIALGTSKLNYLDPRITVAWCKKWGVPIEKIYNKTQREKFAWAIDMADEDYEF

KB 3-1 [5] = assay: Concentration required to inhibit cell proliferation by 50% in KB3-1 tumor cell line; format: functional, cell-based; conditions: Homo sapiens
RPMI 8402 [6] = assay: Concentration required to inhibit cell proliferation in CPT-K5 tumor cell line; camptothecin resistant; format: functional, cell-based; conditions: Homo sapiens
[7] = Concentration required to inhibit cell proliferation by 50% in P388/CPT-45 tumor cell line; camptothecin resistant; format: functional; conditions: Mus musculus, P388CPT45
[8] = Concentration required to inhibit cell proliferation in P388/CPT-45 tumor cell line; camptothecin resistant; format: functional; conditions: Mus musculus, P388CPT45
KB 3-1 [9] = assay: Concentration required to inhibit cell proliferation in KBH5.0 tumor cell line; overexpress BCRP; format: functional, cell-based; conditions: Homo sapiens
KB 3-1 [10] = assay: Concentration required to inhibit cell proliferation in KB3-1 tumor cell line; format: functional, cell-based; conditions: Homo sapiens
KB [11] = assay: Concentration required to inhibit cell proliferation in KBV-1 tumor cell line; overexpress MDR1; format: functional, cell-based; conditions: Homo sapiens

COc1cc2c3cnc4cc5c(cc4c3c(=O)n(CCN(C)C)c2cc1OC)OCO5
IC50 (P388): 2 nM
IC50 (RPMI 8402 [1]): 0.7 nM
IC50 (KB [2]): 4 nM
IC50 (KB 3-1 [3]): 4 nM
REC [4]: 3
IC50 (KB 3-1 [5]): 2 nM
IC50 (RPMI 8402 [6]): 210 nM
IC50 [7]: 200 nM

CC[C@@]1(O)C(=O)OCc2c1cc1n(c2=O)Cc2cc3ccccc3nc2-1 [CAMPTOTHECIN]
IC50 (P388): 10 nM
IC50 (RPMI 8402 [1]): 6 nM
IC50 [8]: > 10000 nM
IC50 (KB 3-1 [9]): 20 nM
IC50 (KB 3-1 [10]): 10 nM
REC [4]: 1
IC50 (KB [11]): 20 nM
IC50 (RPMI 8402 [6]): > 10000 nM

CC[C@@]1(O)C(=O)OCc2c1cc1n(c2=O)Cc2cc3c(CN(C)C)c(O)ccc3nc2-1 [TOPOTECAN]
IC50 (P388): 40 nM
IC50 (RPMI 8402 [1]): 20 nM
IC50 [8]: > 10000 nM
IC50 (KB 3-1 [9]): 440 nM
IC50 (KB 3-1 [10]): 40 nM
REC [4]: 5
IC50 (KB [11]): 440 nM
IC50 (RPMI 8402 [6]): > 10000 nM

COc1cc2c(C(=O)OCCN(C)C)cc3c4cc5c(cc4ncc3c2cc1OC)OCO5
IC50 (P388): 10 nM
IC50 (RPMI 8402 [1]): 30 nM
IC50 (KB [2]): 220 nM
IC50 (KB 3-1 [3]): 70 nM
REC [4]: 5
IC50 (KB 3-1 [5]): 30 nM
IC50 (RPMI 8402 [6]): 730 nM
IC50 [7]: 20 nM

COc1cc2c(=O)n(CCN(C)C)c3c4cc5c(cc4ncc3c2cc1OC)OCO5
IC50 (P388): 1 nM
IC50 [8]: 230 nM
IC50 (KB 3-1 [9]): 6 nM
IC50 (KB 3-1 [10]): 5 nM
IC50 (KB [11]): 5 nM
IC50 (RPMI 8402 [6]): 900 nM

COc1cc2c3cnc4cc5c(cc4c3c(=O)n(CCCN(C)C)c2cc1OC)OCO5
IC50 (P388): 3 nM
IC50 (RPMI 8402 [1]): 0.5 nM
IC50 [8]: 20 nM
IC50 (KB 3-1 [9]): 4 nM
IC50 (KB 3-1 [10]): 3 nM
REC [4]: 3
IC50 (KB [11]): 7 nM
IC50 (RPMI 8402 [6]): 200 nM

COc1cc2c(C(=O)NCCN(C)C)cc3c4cc5c(cc4ncc3c2cc1OC)OCO5
IC50 (P388): 2 nM
IC50 (RPMI 8402 [1]): 3 nM
IC50 (KB [2]): 100 nM
IC50 (KB 3-1 [3]): 30 nM
REC [4]: 0.5
IC50 (KB 3-1 [5]): 1 nM
IC50 (RPMI 8402 [6]): 1000 nM
IC50 [7]: 260 nM

COc1cc2c3cnc4cc5c(cc4c3c(=O)n(CCN3CCCCC3)c2cc1OC)OCO5
IC50 (P388): 3 nM
IC50 (RPMI 8402 [1]): 1 nM
IC50 [8]: 230 nM
IC50 (KB 3-1 [9]): 7 nM
IC50 (KB 3-1 [10]): 6 nM
REC [4]: 0.1
IC50 (KB [11]): 6 nM
IC50 (RPMI 8402 [6]): 1500 nM

COc1cc2c(C(=O)NCCCN(C)C)cc3c4cc5c(cc4ncc3c2cc1OC)OCO5
IC50 (P388): 30 nM
IC50 (RPMI 8402 [1]): 50 nM
IC50 (KB [2]): 4500 nM
IC50 (KB 3-1 [3]): 500 nM
REC [4]: 30
IC50 (KB 3-1 [5]): 40 nM
IC50 (RPMI 8402 [6]): 2050 nM
IC50 [7]: 340 nM

COc1cc2c(C(=O)OCCCN(C)C)cc3c4cc5c(cc4ncc3c2cc1OC)OCO5
IC50 (P388): 110 nM
IC50 (RPMI 8402 [1]): 220 nM
IC50 (KB [2]): 2000 nM
IC50 (KB 3-1 [3]): 600 nM
REC [4]: 7
IC50 (KB 3-1 [5]): 500 nM
IC50 (RPMI 8402 [6]): 1500 nM
IC50 [7]: 140 nM

CCOC(=O)c1cc2c3cc4c(cc3ncc2c2cc(OC)c(OC)cc12)OCO4
IC50 (P388): 40 nM
IC50 (RPMI 8402 [1]): 80 nM
IC50 (KB [2]): 340 nM
IC50 (KB 3-1 [3]): 110 nM
REC [4]: 12
IC50 (KB 3-1 [5]): 40 nM
IC50 (RPMI 8402 [6]): > 10000 nM
IC50 [7]: 3250 nM

CCN(CC)CCn1c(=O)c2c3cc4c(cc3ncc2c2cc(OC)c(OC)cc21)OCO4
IC50 (P388): 3 nM
IC50 (RPMI 8402 [1]): 3 nM
IC50 [8]: 30 nM
IC50 (KB 3-1 [9]): 5 nM
IC50 (KB 3-1 [10]): 3 nM
REC [4]: 0.7
IC50 (KB [11]): 10 nM
IC50 (RPMI 8402 [6]): 900 nM
